Assay results published in patent publication US4652551A, “Renin inhibiting compounds” (Abbott Laboratories, priority 1985, dated 1987).

Each molecule was assayed against T1, human renal renin (Homo sapiens, UniProt P00797) (assay: In vitro inhibition of human renal renin (angiotensin I formed, measured by radioimmunoassay)). Conditions: at 10^-5 M compound; human renin substrate (angiotensinogen), 37° C., pH 6.0.
T1 construct: human renal renin, free from acid proteolytic activity; from tissue; host or cells: human kidney (from the word 'renal')
T1 sequence (P00797 67-406): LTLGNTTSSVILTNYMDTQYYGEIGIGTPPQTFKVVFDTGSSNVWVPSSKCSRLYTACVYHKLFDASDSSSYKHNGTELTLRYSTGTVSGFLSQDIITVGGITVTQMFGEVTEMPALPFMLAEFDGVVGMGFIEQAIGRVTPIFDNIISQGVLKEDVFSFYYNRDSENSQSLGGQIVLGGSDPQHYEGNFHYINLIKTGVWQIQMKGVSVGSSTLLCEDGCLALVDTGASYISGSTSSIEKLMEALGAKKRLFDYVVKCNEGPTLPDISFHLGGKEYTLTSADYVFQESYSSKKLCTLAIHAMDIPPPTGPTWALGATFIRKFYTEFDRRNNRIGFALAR
Format: biochemical
Protocol: At the end of the incubation, the amount of angiotensin I formed is measured by radioimmunoassay and the present inhibition of renin is calculated.

Compared with `CC(C)CCC(O)C(CC(C)C)NC(=O)C(C)NC(=O)C(Cc1ccccc1)NC(=O)OC(C)(C)C` (stereo not drawn) [Example 2C, Boc-Phe-Ala amide of 4-amino-2,8-dimethyl-5-hydroxynonane], `C=CCC(O)C(CC(C)C)NC(=O)C(C)NC(=O)C(Cc1ccccc1)NC(=O)OC(C)(C)C` (stereo not drawn) [Example 4C, Boc-Phe-Ala amide of 5-amino-4-hydroxy-7-methyl-1-octene] is lower in Inhibition: 85% for the first, 48% for the second.

First: C=CC(C)(C)C(O)C(CC(C)C)NC(=O)C(C)NC(=O)C(Cc1ccccc1)NC(=O)OC(C)(C)C (stereo not drawn) [Example 5C, Boc-Phe-Ala amide of 5-amino-4-hyroxy-3,3,7-trimethyl-1-octene]
Second: CC(C)CC(NC(=O)C(C)NC(=O)C(Cc1ccccc1)NC(=O)OC(C)(C)C)C(O)CCc1ccccc1 (stereo not drawn) [Example 1C, Boc-Phe-Ala amide of 4-amino-3-hydroxy-6-methyl-1-phenylheptane]
The Inhibition of the first is lower: 7% for the first, 35% for the second.

`CC(C)CCC(O)C(CC(C)C)NC(=O)C(Cc1cnc[nH]1)NC(=O)C(Cc1ccccc1)NC(=O)OC(C)(C)C` (stereo not drawn) [Example 3, Boc-Phe-His amide of 4-amino-2,8-dimethyl-5-hydroxynonane] showed an Inhibition of 89%.

Same assay, conditions: at 10^-8 M compound; human renin substrate (angiotensinogen), 37° C., pH 6.0

`CC(C)CCC(O)C(CC1CCCCC1)NC(=O)C(Cc1cnc[nH]1)NC(=O)C(Cc1ccccc1)NC(=O)OC(C)(C)C` (stereo not drawn) [Example 6C, Boc-Phe-His Amide of 2-Amino-1-cyclohexyl-3-hydroxy-6-methylheptane] gave an Inhibition of 47%.
